Results as given in patent publication US20230391761A1, “S[…]-ALANINATE DERIVATIVES” (BAYER AKTIENGESELLSCHAFT, priority 2021, published 2023).

Assay: Solubility in Citrate Buffer pH 4
Details: 25 °C, pH 4, aqueous buffer, thermodynamic from solid
Description: 25 mg compound are placed in 2 ml solvent. […] Thereafter, the solution or suspension is filtered and the remaining solution is analyzed via HPLC. The solubility is determined by comparison of the total area of the substance peak to a calibration curve (external standard).
Thereafter, the solution was centrifuged and analyzed via HPLC. The solubility was determined by comparison of the total area of the substance peak to a calibration curve (external standard). The measurements were conducted in triplicates.

CCc1c(N2CC[C@H](O)C2=O)cccc1S(=O)(=O)N[C@@H](CNC(=O)c1ccc(Cl)s1)C(=O)OCCc1nccn1C.Cl [Example 2, 2-(1-Methyl-1H-imidazol-2-yl)ethyl 3-[(5-chlorothiophene-2-carbonyl)amino]-N-{2-ethyl-3-[(3S)-3-hydroxy-2-oxopyrrolidin-1-yl]benzene-1-sulfonyl}-S-alaninate hydrochloride]
solubility at 24 h: > 500 mg/mL
